# Patent publication US5672715A, “Herbicidal substituted 3-aryl-pyrazoles” (Monsanto Company, priority 1995, dated 1997)
# Assays:
# Type in all cases: in vivo
# Velvetleaf [1] = assay: post-emergence herbicide test; conditions: Abutilon theophrasti, post-emergence, 0.25 lb/A; read-out: % plant inhibition
# Outline: (§1)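 Plants were raised from seed in topsoil pans in the greenhouse and treated post-emergence at two to three weeks of age. Candidate chemical was applied in spray solution or suspension containing about 0.4% emulsifier at 1870 L/Ha. Activity recorded as percent inhibition.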
# Wheat [2] = assay: post-emergence herbicide test; conditions: Triticum aestivum, post-emergence, 0.25 lb/A; read-out: % plant inhibition
# Outline: as §1
# Corn [3] = assay: post-emergence herbicide test; conditions: Zea mays, post-emergence, 0.25 lb/A; read-out: % plant inhibition
# Outline: as §1
# Soybean [4] = assay: post-emergence herbicide test; conditions: Glycine max, post-emergence, 0.25 lb/A; read-out: % plant inhibition
# Outline: as §1
# Blackgrass [5] = assay: post-emergence herbicide test; conditions: Alopecurus myosuroides, post-emergence, 0.25 lb/A; read-out: % plant inhibition
# Outline: as §1
# Green Foxtail [6] = assay: post-emergence herbicide test; conditions: Setaria viridis, post-emergence, 0.25 lb/A; read-out: % plant inhibition
# Outline: as §1
# Giant Foxtail [7] = assay: post-emergence herbicide test; conditions: Setaria faberi, post-emergence, 0.25 lb/A; read-out: % plant inhibition
# Outline: as §1
# Bedstraw Catchweed [8] = assay: post-emergence herbicide test; conditions: Galium aparine, post-emergence, 0.25 lb/A; read-out: % plant inhibition
# Outline: as §1
# Morning Glory [9] = assay: post-emergence herbicide test; conditions: Ipomoea, post-emergence, 0.25 lb/A; read-out: % plant inhibition
# Outline: as §1
# Downy Brome [10] = assay: post-emergence herbicide test; conditions: Bromus tectorum, post-emergence, 0.25 lb/A; read-out: % plant inhibition
# Outline: as §1
# Rape [11] = assay: post-emergence herbicide test; conditions: post-emergence, 0.25 lb/A; read-out: % plant inhibition
# Outline: as §1
# Birdseye Speedwell [12] = assay: post-emergence herbicide test; conditions: post-emergence, 0.25 lb/A; read-out: % plant inhibition
# Outline: as §1
# Cocklebur [13] = assay: post-emergence herbicide test; conditions: Xanthium strumarium, post-emergence, 0.25 lb/A; read-out: % plant inhibition
# Outline: as §1
# Barnyardgrass [14] = assay: post-emergence herbicide test; conditions: Echinochloa crus-galli, post-emergence, 0.25 lb/A; read-out: % plant inhibition
# Outline: as §1
# Seedling Johnsongrass [15] = assay: post-emergence herbicide test; conditions: Sorghum halepense, post-emergence, 0.25 lb/A; read-out: % plant inhibition
# Outline: as §1
# Wild Oats [16] = assay: post-emergence herbicide test; conditions: Avena fatua, post-emergence, 0.25 lb/A; read-out: % plant inhibition
# Outline: as §1
# Common Chickweed [17] = assay: post-emergence herbicide test; conditions: post-emergence, 0.25 lb/A; read-out: % plant inhibition
# Outline: as §1
# Velvetleaf [18] = assay: pre-emergence herbicide test; conditions: Abutilon theophrasti, pre-emergence, 0.25 lb/A; read-out: % plant inhibition
# Outline: (§2)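 Seeds were sown on compacted topsoil in pans and covered with a topsoil layer carrying a known amount of active ingredient in acetone or water, applied before or after covering. Pans were bottom-watered on a greenhouse bench, and % inhibition was scored about 14 days after seeding and treatment.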
# Wheat [19] = assay: pre-emergence herbicide test; conditions: Triticum aestivum, pre-emergence, 0.25 lb/A; read-out: % plant inhibition
# Outline: as §2
# Corn [20] = assay: pre-emergence herbicide test; conditions: Zea mays, pre-emergence, 0.25 lb/A; read-out: % plant inhibition
# Outline: as §2
# Soybean [21] = assay: pre-emergence herbicide test; conditions: Glycine max, pre-emergence, 0.25 lb/A; read-out: % plant inhibition
# Outline: as §2
# Blackgrass [22] = assay: pre-emergence herbicide test; conditions: Alopecurus myosuroides, pre-emergence, 0.25 lb/A; read-out: % plant inhibition
# Outline: as §2
# Green Foxtail [23] = assay: pre-emergence herbicide test; conditions: Setaria viridis, pre-emergence; 0.25 lb/A; read-out: % plant inhibition
# Outline: as §2
# Giant Foxtail [24] = assay: pre-emergence herbicide test; conditions: Setaria faberi, pre-emergence, 0.25 lb/A; read-out: % plant inhibition
# Outline: as §2
# Bedstraw Catchweed [25] = assay: pre-emergence herbicide test; conditions: Galium aparine, pre-emergence, 0.25 lb/A; read-out: % plant inhibition
# Outline: as §2
# Morning Glory [26] = assay: pre-emergence herbicide test; conditions: Ipomoea, pre-emergence, 0.25 lb/A; read-out: % plant inhibition
# Outline: as §2
# Downy Brome [27] = assay: pre-emergence herbicide test; conditions: Bromus tectorum, pre-emergence, 0.25 lb/A; read-out: % plant inhibition
# Outline: as §2
# Rape [28] = assay: pre-emergence herbicide test; conditions: pre-emergence, 0.25 lb/A; read-out: % plant inhibition
# Outline: as §2
# Birdseye Speedwell [29] = assay: pre-emergence herbicide test; conditions: pre-emergence, 0.25 lb/A; read-out: % plant inhibition
# Outline: as §2
# Cocklebur [30] = assay: pre-emergence herbicide test; conditions: Xanthium strumarium, pre-emergence, 0.25 lb/A; read-out: % plant inhibition
# Outline: as §2
# Barnyardgrass [31] = assay: pre-emergence herbicide test; conditions: Echinochloa crus-galli, pre-emergence, 0.25 lb/A; read-out: % plant inhibition
# Outline: as §2
# Seedling Johnsongrass [32] = assay: pre-emergence herbicide test; conditions: Sorghum halepense, pre-emergence, 0.25 lb/A; read-out: % plant inhibition
# Outline: as §2
# Wild Oats [33] = assay: pre-emergence herbicide test; conditions: Avena fatua, pre-emergence, 0.25 lb/A; read-out: % plant inhibition
# Outline: as §2
# Common Chickweed [34] = assay: pre-emergence herbicide test; conditions: pre-emergence, 0.25 lb/A; read-out: % plant inhibition
# Outline: as §2
SMILES,inhibition at 280.212 g/ha (Velvetleaf [1]),inhibition at 280.212 g/ha (Wheat [2]),inhibition at 280.212 g/ha (Corn [3]),inhibition at 280.212 g/ha (Soybean [4]),inhibition at 280.212 g/ha (Blackgrass [5]),inhibition at 280.212 g/ha (Green Foxtail [6]),inhibition at 280.212 g/ha (Giant Foxtail [7]),inhibition at 280.212 g/ha (Bedstraw Catchweed [8]),inhibition at 280.212 g/ha (Morning Glory [9]),inhibition at 280.212 g/ha (Downy Brome [10]),inhibition at 280.212 g/ha (Rape [11]),inhibition at 280.212 g/ha (Birdseye Speedwell [12]),inhibition at 280.212 g/ha (Cocklebur [13]),inhibition at 280.212 g/ha (Barnyardgrass [14]),inhibition at 280.212 g/ha (Seedling Johnsongrass [15]),inhibition at 280.212 g/ha (Wild Oats [16]),inhibition at 280.212 g/ha (Common Chickweed [17]),inhibition at 280.212 g/ha (Velvetleaf [18]),inhibition at 280.212 g/ha (Wheat [19]),inhibition at 280.212 g/ha (Corn [20]),further results
"Cn1nc(-c2cc(C(=O)O)c(Cl)cc2F)c(C=O)c1C(F)(F)F [Compound 3, 2-Chloro-4-fluoro-5-[4-formyl-1-methyl-5-(trifluoromethyl)-1H-pyrazol-3-yl]benzoic acid]",85%,8%,2%,15%,0%,10%,0%,15%,25%,0%,10%,75%,65%,0%,0%,5%,25%,25%,0%,0%,inhibition at 280.212 g/ha (Soybean [21]): 20%; inhibition at 280.212 g/ha (Blackgrass [22]): 5%; inhibition at 280.212 g/ha (Green Foxtail [23]): 30%; inhibition at 280.212 g/ha (Giant Foxtail [24]): 5%; inhibition at 280.212 g/ha (Bedstraw Catchweed [25]): 5%; inhibition at 280.212 g/ha (Morning Glory [26]): 60%; inhibition at 280.212 g/ha (Downy Brome [27]): 0%; inhibition at 280.212 g/ha (Rape [28]): 5%; inhibition at 280.212 g/ha (Birdseye Speedwell [29]): 0%; inhibition at 280.212 g/ha (Cocklebur [30]): 5%; inhibition at 280.212 g/ha (Barnyardgrass [31]): 15%; inhibition at 280.212 g/ha (Seedling Johnsongrass [32]): 25%; inhibition at 280.212 g/ha (Wild Oats [33]): 5%; inhibition at 280.212 g/ha (Common Chickweed [34]): 0%
Cc1c(-c2cc(C(=O)OCc3ccco3)c(Cl)cc2F)nn(C)c1C(F)(F)F [Compound 57],100%,8%,3%,17%,15%,40%,15%,40%,50%,15%,15%,100%,85%,35%,35%,25%,55%,90%,0%,0%,inhibition at 280.212 g/ha (Soybean [21]): 0%; inhibition at 280.212 g/ha (Blackgrass [22]): 15%; inhibition at 280.212 g/ha (Green Foxtail [23]): 85%; inhibition at 280.212 g/ha (Giant Foxtail [24]): 10%; inhibition at 280.212 g/ha (Bedstraw Catchweed [25]): 80%; inhibition at 280.212 g/ha (Morning Glory [26]): 90%; inhibition at 280.212 g/ha (Downy Brome [27]): 20%; inhibition at 280.212 g/ha (Rape [28]): 0%; inhibition at 280.212 g/ha (Birdseye Speedwell [29]): 60%; inhibition at 280.212 g/ha (Cocklebur [30]): 10%; inhibition at 280.212 g/ha (Barnyardgrass [31]): 50%; inhibition at 280.212 g/ha (Seedling Johnsongrass [32]): 15%; inhibition at 280.212 g/ha (Wild Oats [33]): 5%; inhibition at 280.212 g/ha (Common Chickweed [34]): 20%
Cc1c(-c2cc(C(=O)OCC3CNCCO3)c(Cl)cc2F)nn(C)c1C(F)(F)F (stereo not drawn) [Compound 47],100%,15%,50%,30%,20%,70%,5%,90%,70%,20%,65%,95%,100%,5%,50%,30%,95%,50%,0%,0%,inhibition at 280.212 g/ha (Soybean [21]): 0%; inhibition at 280.212 g/ha (Blackgrass [22]): 25%; inhibition at 280.212 g/ha (Green Foxtail [23]): 100%; inhibition at 280.212 g/ha (Giant Foxtail [24]): 75%; inhibition at 280.212 g/ha (Bedstraw Catchweed [25]): 95%; inhibition at 280.212 g/ha (Morning Glory [26]): 70%; inhibition at 280.212 g/ha (Downy Brome [27]): 20%; inhibition at 280.212 g/ha (Rape [28]): 5%; inhibition at 280.212 g/ha (Birdseye Speedwell [29]): 70%; inhibition at 280.212 g/ha (Cocklebur [30]): 0%; inhibition at 280.212 g/ha (Barnyardgrass [31]): 75%; inhibition at 280.212 g/ha (Seedling Johnsongrass [32]): 50%; inhibition at 280.212 g/ha (Wild Oats [33]): 5%; inhibition at 280.212 g/ha (Common Chickweed [34]): 70%
